According to US4374149A, “α-{[(Arylalkyl)amino]alkyl}-4-hydroxy-3-(lower-alkylsul finyl)benzenemethanols” (Sterling Drug Inc., priority 1978, dated 1983):
Structures can show the parent of a compound that is named as a salt.

What was measured:
[1] = test system: systolic blood pressure; test: Antihypertensive activity, reduction in systolic blood pressure, single oral medication, unanesthetized spontaneous hypertensive rat; assay type: in vivo; details: P.O.; for Antihypertensive activity SH Rat AHD40 (single oral dose required to induce a 40 mm. average reduction in systolic blood pressure): unanesthetized SH rat
Description: Antihypertensive activity was determined on the basis of the observed reduction in systolic blood pressure measured according to the method of H. Kersten et al., J. Lab. and Clin. Med. 32, 1090 (1947) following a single oral medication in the unanesthetized spontaneous hypertensive rat described by Okamato et al., Japan Circulation J. 27, 282 (1963).
^a AHD40 = single oral dose required to induce a 40 mm. average

[2] = test system: isolated rabbit ear artery; test: Vasodilator activity, perfusion pressure in isolated rabbit ear artery
Description: (§1) Vasodilator activity was judged on the basis of observed reduction in perfusion pressure in the hind limb vasculature of the anesthetized dog determined according to the procedure described by Jandhyala et al., European J. Pharm. 17, 357 (1972), and also on the basis of percent reduction in perfusion pressure as measured in the isolated rabbit ear artery according to the method described by De LaLande et al., Aust. J. Exp. Biol. Med. Sci. 43, 639 (1965).
^d Vasodilation is expressed as the percentage reduction in perfusion

[3] = test system: β-adrenergic; test: β-adrenergic blocking activity, inhibition of isoproterenol-elicited heart rate increase in pentobarbitalized dog; assay type: in vivo; details: i.v.; for Dog β-blockade AED50 (approximate intravenous dose for 50% inhibition of isoproterenol-elicited heart rate increase): pentobarbitalized dog
Description: The β-adrenergic blocking activity was determined in the pentobarbitalized dog as judged by the ability of the test compound to inhibit the elevation in heart rate elicited by a 0.5 mcg./kg. i.v. injection of isoproterenol.
^e AED50 = approximate intravenous dose required to cause 50%

[4] = test system: hind limb vasculature; test: Vasodilator activity, perfusion pressure in hind limb vasculature of anesthetized dog; assay type: in vivo; details: for Vasodilator activity Dog-Leg Perfusion AED50 (approximate intraarterial dose for 50 reduction in perfusion pressure): acetate salt
Description: as §1
^c AED50 = approximate intraarterial dose required to cause a 50

[5] = test system: blood pressure; test: Antihypertensive activity, sustained lowering of blood pressure, repeated oral medication, unanesthetized trained renal hypertensive dog; assay type: in vivo; details: tid., hydrochloride; for Actual percentage reduction in blood pressure observed at the indicated dose: 0.5 mg./kg.
Description: Antihypertensive activity was also judged on the basis of sustained reduction of blood pressure observed in the unanesthetized trained renal hypertensive dog following repeated oral medication according to the procedure described by Lape et al., Arch.
^b MED10 = minimum repeated oral daily dose required to effect a

[6] = intraarterial, anesthetized dog hind limb
[7] = 1 × 10^-4 M, 100 µM, hydrochloride

## COc1ccc(CCC(C)NCC(O)c2ccc(O)c([S+](C)[O-])c2)cc1 (stereo not drawn) [Example 4C, 4-hydroxy-α-<{[3-(4-methoxyphenyl)-1-methylpropyl]amino}methyl>-3-(methylsulfinyl)benzenemethanol acetate salt]
[1]; 20 mg./kg.
  Actual reduction in blood pressure observed at the indicated dose: -33 mm. Hg
[1]; acetate salt
  Antihypertensive activity SH Rat AHD40 (single oral dose required to induce a 40 mm. average reduction in systolic blood pressure): > 20.0 mg/kg
[2]; 1 × 10^-4 M, 100 µM, acetate salt
  Rabbit Ear Artery vasodilation (percentage reduction in perfusion pressure from control level): 10%
[3]; acetate salt
  Dog β-blockade AED50 (approximate intravenous dose for 50% inhibition of isoproterenol-elicited heart rate increase): ~0.5 mg/kg
[4]; [6]
  Vasodilator activity Dog-Leg Perfusion AED50 (approximate intraarterial dose for 50 reduction in perfusion pressure): 0.5 mg/kg

## CC(=O)O.C[S+]([O-])c1cc(C(O)CNC(C)(C)Cc2ccccc2)ccc1O (stereo not drawn) [Example 14D, α-{[(1,1-dimethyl-2-phenylethyl)amino]-methyl}-4-hydroxy-3-(methylsulfinyl)benzenemethanol acetate salt]
[1]
  Antihypertensive activity SH Rat AHD40 (single oral dose required to induce a 40 mm. average reduction in systolic blood pressure): 20.0 mg/kg
[2]; 1 × 10^-6 M, 1 µM
  Rabbit Ear Artery vasodilation (percentage reduction in perfusion pressure from control level): 29%
[3]; 1.0 mg./kg.
  Actual percentage inhibition of heart rate increase above control level observed at the indicated dose: 87%
[3]
  Dog β-blockade AED50 (approximate intravenous dose for 50% inhibition of isoproterenol-elicited heart rate increase): < 1.0 mg/kg
[4]; Canis lupus familiaris, intraarterial, anesthetized dog hind limb, read-out: Vasodilator activity Dog-Leg Perfusion AED50 (approximate intraarterial dose for 50 reduction in perfusion pressure)
  ED50: 0.5 mg/kg

## COc1ccc(CCC(C)NCC(O)c2ccc(O)c([S+](C)[O-])c2)cc1 (single isomer, unassigned) [Example 13C, 4-hydroxy-α-<{[3-(4-methoxyphenyl)-1-methylpropyl]amino}methyl>-3-(methylsulfinyl)benzenemethanol hydrochloride]
[1]; hydrochloride
  Antihypertensive activity SH Rat AHD40 (single oral dose required to induce a 40 mm. average reduction in systolic blood pressure): 3 mg/kg
[2]; [7]
  Rabbit Ear Artery vasodilation (percentage reduction in perfusion pressure from control level): 50%
[5]
  Actual percentage reduction in blood pressure observed at the indicated dose: 17%
  Renal Hypertensive Dog MED10 (minimum repeated oral daily dose for sustained lowering of blood pressure of 10% or greater): < 0.5 mg/kg
[3]; hydrochloride
  Dog β-blockade AED50 (approximate intravenous dose for 50% inhibition of isoproterenol-elicited heart rate increase): 0.0125 mg/kg

## COc1ccc(CCC(C)NCC(O)c2ccc(O)c([S+](C)[O-])c2)cc1 (stereo not drawn) [Example 6E, 4-hydroxy-α-<{[3-(4-methoxyphenyl)-1-methylpropyl]amino}methyl>-3-(methylsulfinyl)benzenemethanol acetate salt]
[1]; acetate salt
  Antihypertensive activity SH Rat AHD40 (single oral dose required to induce a 40 mm. average reduction in systolic blood pressure): 15.0 mg/kg
[2]; 5 × 10^-5 M, 50 µM, acetate salt
  Rabbit Ear Artery vasodilation (percentage reduction in perfusion pressure from control level): 58%
[3]; acetate salt
  Dog β-blockade AED50 (approximate intravenous dose for 50% inhibition of isoproterenol-elicited heart rate increase): 0.25 mg/kg
[4]; 0.025 mg./kg. intraarterial
  Actual percentage reduction in perfusion pressure observed at the indicated dose: 25%
[4]; [6]
  Vasodilator activity Dog-Leg Perfusion AED50 (approximate intraarterial dose for 50 reduction in perfusion pressure): > 0.025 mg/kg

## COc1ccc(CCC(C)NCC(O)c2ccc(O)c([S+](C)[O-])c2)cc1 (single isomer, unassigned) [Example 12, 4-hydroxy-α-<{[3-(4-methoxyphenyl)-1-methylpropyl]amino}methyl>-3-(methylsulfinyl)benzenemethanol hydrochloride]
[1]; hydrochloride
  Antihypertensive activity SH Rat AHD40 (single oral dose required to induce a 40 mm. average reduction in systolic blood pressure): 5 mg/kg
[2]; 2 × 10^-4 M, 200 µM
  Rabbit Ear Artery vasodilation (percentage reduction in perfusion pressure from control level): 50%
[5]
  Actual percentage reduction in blood pressure observed at the indicated dose: 14%
  Renal Hypertensive Dog MED10 (minimum repeated oral daily dose for sustained lowering of blood pressure of 10% or greater): < 0.5 mg/kg
[3]; hydrochloride
  Dog β-blockade AED50 (approximate intravenous dose for 50% inhibition of isoproterenol-elicited heart rate increase): 0.05 mg/kg

## COc1ccc(CCC(C)NCC(O)c2ccc(O)c([S+](C)[O-])c2)cc1 (single isomer, unassigned) [Example 11, 4-hydroxy-α-<{[3-(4-methoxyphenyl)-1-methylpropyl]amino}methyl>-3-(methylsulfinyl)benzenemethanol hydrochloride]
[1]; 16.0 mg./kg., hydrochloride
  Actual reduction in blood pressure observed at the indicated dose: -14 mm. Hg
[1]; hydrochloride
  Antihypertensive activity SH Rat AHD40 (single oral dose required to induce a 40 mm. average reduction in systolic blood pressure): > 16.0 mg/kg
[2]; [7]
  Rabbit Ear Artery vasodilation (percentage reduction in perfusion pressure from control level): 38%
[5]
  Actual percentage reduction in blood pressure observed at the indicated dose: 14%
  Renal Hypertensive Dog MED10 (minimum repeated oral daily dose for sustained lowering of blood pressure of 10% or greater): < 0.5 mg/kg
[3]; hydrochloride
  Dog β-blockade AED50 (approximate intravenous dose for 50% inhibition of isoproterenol-elicited heart rate increase): 0.25 mg/kg
